Assay results taken from patent US20200131156A1, “ARYLSULFONYLPYROLECARBOXAMIDE DERIVATIVES AS Kv3 POTASSIUM CHANNEL ACTIVATORS” (H. Lundbeck A/S, priority 2018, published 2020).

Target: T1, human Kv3.2 (Homo sapiens, UniProt Q96PR1)
T1 construct: expressed in transfected cells
T1 sequence (Q96PR1 1-638): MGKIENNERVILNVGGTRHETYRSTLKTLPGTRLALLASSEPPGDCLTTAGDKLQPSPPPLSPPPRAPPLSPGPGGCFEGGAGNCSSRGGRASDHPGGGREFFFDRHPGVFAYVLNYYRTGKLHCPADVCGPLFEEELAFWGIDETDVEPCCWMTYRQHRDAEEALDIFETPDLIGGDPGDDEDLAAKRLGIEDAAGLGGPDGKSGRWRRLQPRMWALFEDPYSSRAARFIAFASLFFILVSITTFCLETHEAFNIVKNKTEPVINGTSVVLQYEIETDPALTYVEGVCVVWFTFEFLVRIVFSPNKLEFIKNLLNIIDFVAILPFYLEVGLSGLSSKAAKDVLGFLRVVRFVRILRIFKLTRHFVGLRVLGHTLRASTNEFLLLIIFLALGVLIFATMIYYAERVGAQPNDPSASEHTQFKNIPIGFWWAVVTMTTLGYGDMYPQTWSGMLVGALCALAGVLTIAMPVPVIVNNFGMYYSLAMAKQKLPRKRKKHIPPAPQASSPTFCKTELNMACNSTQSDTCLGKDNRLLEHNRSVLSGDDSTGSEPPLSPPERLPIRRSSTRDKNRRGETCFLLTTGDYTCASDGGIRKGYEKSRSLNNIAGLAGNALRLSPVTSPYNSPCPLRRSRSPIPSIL
Assay: Manual patch clamp electrophysiology, HEK-293 cells stably expressing human Kv3.2
Type: cell-based
Conditions: for hKv3.2 ECΔ30% increase: concentration increasing current by 30% at the −10 mV step; for hKv3.2 ECΔ5 mV: concentration that shifts activation threshold by 5 mV
Method: Manual Patch Clamp Electrophysiological Evaluation, hKv3.1, hKv3.2, hKv3.3, hKv3.4:
HEK-293 cells stably expressing human Kv3.1b, Kv3.2, Kv3.3 or Kv3.4 were used for the experiments.
Kv3.1b, Kv3.2: Cells were cultured in MEM medium supplemented with 10% Fetal Bovine Serum, 1% Penicillin/Streptomycin, 2 mM glutamine and 0.6 mg/mL geneticin. Cells were grown to 80-90% confluency at 37° C. and 5% CO2 Kv3.3 or Kv3.4: Cells were cultured in DMEM medium supplemented with 10% Fetal Bovine Serum, 500 ug/mL Geneticidin and 1% Penicillin/Streptomycin. Cells were grown to 80-90% confluency at 37° C. and 5% CO2.
On the day of the experiment the cells were detached by TrypLE and resuspended in culture medium. Cells were centrifuged, media removed and the cells were resuspended in extracellular buffer containing (in mM): 130 Na-gluconate, 20 NaCl, 4 KCl, 1 MgCl2, 1.8 CaCl2, 10 HEPES and 5 glucose, pH 7.3 adjusted with NaOH, 310-320 mOsm
Patch-clamp recordings were performed using a manual patch-clamp system (Axon Multiclamp 700B, Digidata 1440, pCLAMP 10, Molecular Devices Corporation) with a fast perfusion system (RSC-160 Rapid solution Changer, BioLogic). Whole-cell recordings were carried out using an intracellular solution containing (in mM): 100 K-gluconate, 40 KCl, 10 HEPES, 1 EGTA, 1 MgCl2, pH 7.2 adjusted with KOH, 290-300 mOsm. Cell membrane potentials were held at −80 mV and current voltage-relationship was generated by voltage steps (50 ms duration) from −100 mV to +10 mV (in 10 mV increments) and then back to −100 mV for 50 ms, with inter-sweep interval of 3 s. The peak current amplitude of −10 mV was monitored until stable (<5% change) by using one step voltage protocol. One IV protocol was run as baseline, then compound perfusion was stared and peak current stability was monitored with single step protocol prior to the IV protocol. Single concentrations were measured per cell. Acceptable cells had seal resistance >500 MOhm, Access resistance <10 MOhm, and leak current <200 pA.
Data analysis was performed using Clampfit (V10.2) in combination with Microsoft Excel™ (Redmond, Wash., USA). Current voltage relationships were plotted from the peak current (baseline subtracted) at the individual voltage steps normalized to the vehicle addition at 10 mV. The voltage threshold for channel activation was defined as 5% activation of the peak current at 10 mV in presence of vehicle. […] The concentration needed to shift the threshold 5 mV was readout from this curve (ECΔ5 mV), as well as the ability to increase the peak current at the −10 mV step (EC30% increase). […]

SMILES	hKv3.2 ECΔ30% increase	hKv3.2 ECΔ5 mV
Cc1cnc(CNC(=O)c2ccn(S(=O)(=O)c3ccc(F)cc3C)c2)cn1 [Compound 90, 1-(4-fluoro-2-methylbenzene-1-sulfonyl)-N-[(5-methylpyrazin-2-yl)methyl]-1H-pyrrole-3-carboxamide]	8.2 µM	1.5 µM
Cc1ccc(S(=O)(=O)n2ccc(C(=O)NCc3ncco3)c2)cc1 [Compound 86, 1-(4-methylbenzene-1-sulfonyl)-N-[(1,3-oxazol-2-yl)methyl]-1H-pyrrole-3-carboxamide]	>30 µM	6.0 µM
